According to ChEMBL document CHEMBL5113529, “Design, Synthesis, and Biological Evaluation of Dual-Target COX-2/CYP51 Inhibitors for the Treatment of Fungal Infectious Diseases” (J Med Chem, 2022):
Values after ≈ are worked out from the molar mass of the structure shown. Active and inactive are the calls of the source. The calls are words filed in the database; no cut-off is given here.

Legend:
Mus musculus [1] = organism: Mus musculus; experiment: Immunostimulatory activity in mouse infected with Candida albicans ATCC SC5314 assessed as reduction in PD-L1 expression in spleen by western blot analysis relative to control; format: functional; design: scale not given: the % may be the effect or the level left
Mus musculus [2] = organism: Mus musculus; experiment: Antiinflammatory activity against mouse infected with Candida albicans ATCC SC5314 assessed as reduction in COX-2 expression in spleen by Western blot analysis; format: functional; design: scale not given: the % may be the effect or the level left
Mus musculus [3] = organism: Mus musculus; experiment: Immunostimulatory activity in mouse infected with Candida albicans ATCC SC5314 assessed as increase in CD8+ expression level in spleen by immunohistochemical analysis; format: functional
Pichia kudriavzevii = experiment: Antifungal activity against Candida krusei ATCC 6258 assessed as fungal growth inhibition measured after 72 hrs by double dilution method; format: functional
[4] = Toxicity in mouse infected with Candida albicans assessed as BUN level in plasma at 10 ug per 20 g, ip administered on day 2, 4, 6, 8, 10 and 12 and measured on day 14 (reference value: 8.2 +/- 0.5 mmol/L); format: organism-based; details: in vivo, 336 h, dose 10 µg, time 14 day
Candida tropicalis = experiment: Antifungal activity against Candida tropicalis ATCC 1369 assessed as fungal growth inhibition measured after 72 hrs by double dilution method; format: functional
[5] = target: T1, Lanosterol 14-alpha demethylase (Candida albicans (strain SC5314 / ATCC MYA-2876) (Yeast), UniProt P10613); experiment: Inhibition of CYP51 in Candida albicans SC5314 using Eburicol as substrate preincubated for 20 mins followed by substrate addition and measured after 4 mins by HPLC analysis; format: single protein
T1 sequence (P10613 whole entry): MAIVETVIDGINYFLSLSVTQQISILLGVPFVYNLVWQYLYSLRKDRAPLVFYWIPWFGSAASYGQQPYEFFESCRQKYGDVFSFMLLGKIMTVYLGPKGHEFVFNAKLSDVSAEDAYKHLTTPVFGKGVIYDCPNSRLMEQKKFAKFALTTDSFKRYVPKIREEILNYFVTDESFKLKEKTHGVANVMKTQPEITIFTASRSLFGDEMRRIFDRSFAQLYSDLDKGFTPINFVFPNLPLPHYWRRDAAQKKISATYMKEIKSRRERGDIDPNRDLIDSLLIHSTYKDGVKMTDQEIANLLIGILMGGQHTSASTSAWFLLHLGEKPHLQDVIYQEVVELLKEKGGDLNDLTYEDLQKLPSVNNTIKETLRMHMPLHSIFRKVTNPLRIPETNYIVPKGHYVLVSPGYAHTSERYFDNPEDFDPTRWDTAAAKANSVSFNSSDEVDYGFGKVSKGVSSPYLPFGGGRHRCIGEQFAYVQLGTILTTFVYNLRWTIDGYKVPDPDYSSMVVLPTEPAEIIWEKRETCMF

[6] = Toxicity in mouse infected with Candida albicans assessed as AST level in plasma at 10 ug per 20 g, ip administered on day 2, 4, 6, 8, 10 and 12 and measured on day 14 (reference value: 74.9 +/- 6.7 IU/L); format: organism-based; details: in vivo, 336 h, dose 10 µg, time 14 day
Candida albicans [7] = experiment: Induction of mitochondrial membrane potential loss in Candida albicans ATCC SC5314 assessed as depolarized cells at 1 umol/ml incubated for 24 hrs by JC-1 staining based flow cytometry assay (reference value: 0.76 to 3.29%); format: functional; details: dose 1 µmol/L, at 1 µM
Candida albicans [8] = experiment: Antifungal activity against Candida albicans ATCC SC5314 assessed as fungal growth inhibition measured after 72 hrs by double dilution method; format: functional
Candida albicans [9] = experiment: Antifungal activity against fluconazole -resistant Candida albicans 632 assessed as fungal growth inhibition measured after 72 hrs by double dilution method; format: functional
[10] = target: T1, Lanosterol 14-alpha demethylase; experiment: Inhibition of CYP51 in Candida albicans ATCC SC5314 assessed as lanosterol level at 4 ug/ml incuabted for 48 hrs by GC-MS analysis relative to control; design: scale not given: the % may be the effect or the level left; details: at 4 µg/mL
Candida albicans [11] = experiment: Antifungal activity against Candida albicans ATCC SC5314 assessed as decrease in fungal cell density measured at 48 hrs by fluorescence microscopy (reference value: 258%); format: functional; design: scale not given: the % may be the effect or the level left
Cryptococcus neoformans = experiment: Antifungal activity against Cryptococcus neoformans ZKCC 2209 assessed as fungal growth inhibition measured after 72 hrs by double dilution method; format: functional
[12] = target: T1, Lanosterol 14-alpha demethylase; experiment: Inhibition of CYP51 in Candida albicans ATCC SC5314 assessed as eburicol level at 4 ug/ml incuabted for 48 hrs by GC-MS analysis (reference value: 1.05%); design: scale not given: the % may be the effect or the level left; details: at 4 µg/mL
[13] = target: T1, Lanosterol 14-alpha demethylase; experiment: Inhibition of CYP51 in Candida albicans ATCC SC5314 assessed as ergosterol level at 4 ug/ml incuabted for 48 hrs by GC-MS analysis (reference value: 96.48%); design: scale not given: the % may be the effect or the level left; details: at 4 µg/mL
Candida albicans [14] = experiment: Antifungal activity against fluconazole -resistant Candida albicans 901 assessed as fungal growth inhibition measured after 72 hrs by double dilution method; format: functional
Mus musculus [15] = organism: Mus musculus; experiment: Immunostimulatory activity in mouse infected with Candida albicans ATCC SC5314 assessed as increase in CD3+ expression level in spleen by immunohistochemical analysis; format: functional
Candida albicans [16] = experiment: Antifungal activity against fluconazole -resistant Candida albicans 904 assessed as fungal growth inhibition measured after 72 hrs by double dilution method; format: functional
Candida albicans [17] = experiment: Induction of apoptosis in Candida albicans ATCC SC5314 assessed as late apoptotic cells incuabted for 24 hrs by V-FITC/PI staining based flow cytometry analysis (reference value: 0.36%); format: functional
Candida albicans [18] = experiment: Induction of apoptosis in Candida albicans ATCC SC5314 assessed as mid apoptotic cells incuabted for 24 hrs by V-FITC/PI staining based flow cytometry analysis (reference value: 1.09%); format: functional
Candida albicans [19] = experiment: Induction of apoptosis in Candida albicans ATCC SC5314 assessed as normal cells incuabted for 24 hrs by V-FITC/PI staining based flow cytometry analysis (reference value: 96.78%); format: functional
Candida albicans [20] = experiment: Induction of mitochondrial membrane potential loss in Candida albicans ATCC SC5314 assessed as normal cells at 1 umol/ml incubated for 24 hrs by JC-1 staining based flow cytometry assay (reference value: 95.26%); format: functional; details: dose 1 µmol/L, at 1 µM
Candida albicans [21] = experiment: Antifungal activity against fluconazole -resistant Candida albicans CaR assessed as fungal growth inhibition measured after 72 hrs by double dilution method; format: functional
Candida albicans [22] = experiment: Antifungal actvity against Candida albicans ATCC SC5314 infected in mouse assessed as reduction in fungal infection at 10 ug per 20 g, ip administered on day 2, 4, 6, 8, 10 and 12 and measured on day 14; format: functional, organism-based; details: dose 10.0 µg, time 14.0 day
Candida albicans [23] = experiment: Antifungal activity against fluconazole- resistant Candida albicans 17# assessed as fungal growth inhibition measured after 72 hrs by double dilution method; format: functional
Mus musculus [24] = organism: Mus musculus; experiment: Antiinflammatory activity against mouse infected with Candida albicans ATCC SC5314 assessed as reduction in MMP-9 expression in spleen by Western blot analysis; format: functional, organism-based
Candida albicans [25] = experiment: Antifungal actvity against Candida albicans ATCC SC5314 infected in mouse assessed as shrinking of infection region at 10 ug per 20 g, ip administered on day 2, 4, 6, 8, 10 and 12 and measured on day 14; format: functional, organism-based; details: dose 10.0 µg, time 14.0 day
Candida albicans [26] = experiment: Antifungal activity against Candida albicans ATCC SC5314 assessed as decrease in fungal cell density measured immediately by fluorescence microscopy (reference value: 126%); format: functional; design: scale not given: the % may be the effect or the level left
[27] = Toxicity in mouse infected with Candida albicans assessed as ALT level in plasma at 10 ug per 20 g, ip administered on day 2, 4, 6, 8, 10 and 12 and measured on day 14 (reference value: 43.6 +/- 4.4 IU/L); format: organism-based; details: in vivo, 336 h, dose 10 µg, time 14 day
[28] = target: T1, Lanosterol 14-alpha demethylase; experiment: Inhibition of CYP51 in Candida albicans ATCC SC5314 assessed as unknown sterol level at 4 ug/ml incuabted for 48 hrs by GC-MS analysis (reference value: 2.47%); design: scale not given: the % may be the effect or the level left; details: at 4 µg/mL
Candida albicans [29] = experiment: Induction of apoptosis in Candida albicans ATCC SC5314 assessed as necrotic cells incuabted for 24 hrs by V-FITC/PI staining based flow cytometry analysis (reference value: 1.77%); format: functional
Aspergillus fumigatus = experiment: Antifungal activity against Aspergillus fumigatus KM8001 assessed as fungal growth inhibition measured after 72 hrs by double dilution method; format: functional
Candida albicans [30] = experiment: Induction of mitochondrial membrane potential loss in Candida albicans ATCC SC5314 assessed as polarized cells at 1 umol/ml incubated for 24 hrs by JC-1 staining based flow cytometry assay (reference value: 0.69%); format: functional; details: dose 1 µmol/L, at 1 µM
[31] = Toxicity in mouse infected with Candida albicans assessed as lung injury at 10 ug per 20 g, ip administered on day 2, 4, 6, 8, 10 and 12 and measured on day 14 by H and E staining based assay; format: organism-based; details: in vivo, 336 h, dose 10 µg, time 14 day

Compound	Activity (Mus musculus [1])	Activity (Mus musculus [2])	Activity (Mus musculus [3])	MIC50 (Pichia kudriavzevii)	Activity [4]	MIC50 (Candida tropicalis)	IC50 [5]	Activity [6]	Activity (Candida albicans [7])	MIC50 (Candida albicans [8])	MIC50 (Candida albicans [9])	Activity [10]	Activity (Candida albicans [11])	MIC50 (Cryptococcus neoformans)	Activity [12]	Activity [13]	MIC50 (Candida albicans [14])	Activity (Mus musculus [15])	MIC50 (Candida albicans [16])	Activity (Candida albicans [17])	also measured
CC(C)NC(=O)[C@@H](Cn1ccnc1)NC(=O)[C@@H](C)c1cccc(C(=O)c2ccccc2)c1	9.84%	18.41%	Active	0.25 µg/mL (≈ 0.578 µM)	12.1 mmol/L	0.5 µg/mL (≈ 1.16 µM)	150 nM	69.8 IU/L	0.76%	0.125 µg/mL (≈ 0.289 µM)	4 µg/mL (≈ 9.25 µM)	39.58%	72%	0.5 µg/mL (≈ 1.16 µM)	37.35%	11.27%	2 µg/mL (≈ 4.62 µM)	Active	4 µg/mL (≈ 9.25 µM)	12.5%	Activity (Candida albicans [18]): 2.81%; Activity (Candida albicans [19]): 53.73%; Activity (Candida albicans [20]): 62.2%; MIC50 (Candida albicans [21]): 1 µg/mL (≈ 2.31 µM); Activity (Candida albicans [22]): Active; MIC50 (Candida albicans [23]): 2 µg/mL (≈ 4.62 µM); Activity (Mus musculus [24]): Active; Activity (Candida albicans [25]): Active; Activity (Candida albicans [26]): 121%; Activity [27]: 41.2 IU/L; Activity [28]: 11.8%; Activity (Candida albicans [29]): 30.96%; MIC50 (Aspergillus fumigatus): 2 µg/mL (≈ 4.62 µM); Activity (Candida albicans [30]): 0.39%
OC(Cn1cncn1)(Cn1cncn1)c1ccc(F)cc1F [FLUCONAZOLE]	31.81%	47.23%	2.5	1 µg/mL (≈ 3.27 µM)	9.7 mmol/L	0.5 µg/mL (≈ 1.63 µM)	140 nM	81.6 IU/L	0.37%	0.5 µg/mL (≈ 1.63 µM)	> 8 µg/mL	35.17%	75%	0.5 µg/mL (≈ 1.63 µM)	40.24%	13.19%	> 8 µg/mL	2.5	> 8 µg/mL	1.56%	Activity (Candida albicans [18]): 0.4%; Activity (Candida albicans [19]): 68.17%; Activity (Candida albicans [20]): 81.14%; MIC50 (Candida albicans [21]): > 8 µg/mL; Activity (Candida albicans [22]): Active; MIC50 (Candida albicans [23]): > 8 µg/mL; Activity (Candida albicans [26]): 119%; Activity [27]: 37.5 IU/L; Activity [28]: 11.4%; Activity (Candida albicans [29]): 29.87%; Activity [31]: Non-Toxic; MIC50 (Aspergillus fumigatus): > 8 µg/mL; Activity (Candida albicans [30]): 0.39%
COc1ccc2cc([C@H](C)C(=O)NC(Cn3cncn3)C(=O)c3ccccc3)ccc2c1 (some centres not stated)	12.36%	11.32%	Active	0.25 µg/mL (≈ 0.583 µM)	10.5 mmol/L	0.125 µg/mL (≈ 0.292 µM)	80 nM	75.1 IU/L	3.14%	0.25 µg/mL (≈ 0.583 µM)	4 µg/mL (≈ 9.34 µM)	46.09%	62%	0.125 µg/mL (≈ 0.292 µM)	35.68%	8.62%	1 µg/mL (≈ 2.33 µM)	Active	2 µg/mL (≈ 4.67 µM)	22.73%	Activity (Candida albicans [18]): 14.76%; Activity (Candida albicans [19]): 50.92%; Activity (Candida albicans [20]): 44.19%; MIC50 (Candida albicans [21]): 1 µg/mL (≈ 2.33 µM); Activity (Candida albicans [22]): Active; MIC50 (Candida albicans [23]): 1 µg/mL (≈ 2.33 µM); Activity (Mus musculus [24]): Active; Activity (Candida albicans [25]): Active; Activity (Candida albicans [26]): 115%; Activity [27]: 39.4 IU/L; Activity [28]: 9.61%; Activity (Candida albicans [29]): 11.59%; Activity [31]: Non-Toxic; MIC50 (Aspergillus fumigatus): 2 µg/mL (≈ 4.67 µM); Activity (Candida albicans [30]): 0.81%
